2 compounds from patent EP0146113A2, “Active agent and therapeutical composition for the treatment of deincephalon failures of nervous deseases and skin diseases” (Aderhold, Dieter, priority 1983, dated 1985) can be followed below.

Series [1] can be described thus: Storage stability (loss of activity on storage). The class given is physicochemical. As to the method: (§1) Die Erfahrungen mit α-, β- und 4 -MSH bzw. dem erwähnten Tetrapeptid zeigen, daß diese Substanzen ausserordentlich empfindlich und labil sind. […] Bei der Verbindung des Tetrapeptides mit einer Depotsubstanz sollte eine Wirkungsdauer von 12-15 Stunden angestrebt werden.
(§2) Während die Halbwertzeit des reinen Tetrapeptides ca. 1 Woche beträgt, trat bei dem hergestellten Depotpräparat ein geringerer Wirkungsverlust als 10% pro Woche auf. Im Körper hält der Depoteffekt zwischen 6 - 12h an. Als Tagesdosis von dem Depotpräparat empfiehlt sich eine Menge von etwa 1 ml, was etwa 200 Mikrogramm entspricht.
Für das Depotpräparat ist keine gekühlte Lagerung mehr erforderlich.

Series [2] deals with Patienten. Kind of series: Long-term trial, subcutaneous application over 2 - 15 months in a series of patients (MS therapy). It is filed as in vivo. The source says: Das Tetrapeptid His-Phe-Arg-Trp wurde in einem Langzeitversuch über 2 - 15 Monate hinweg einer Reihe von Patienten subkutan appliziert. Dabei wurden folgende Ergebnisse erhalten: • Zwei Drittel der Patienten hatten ein subjektives - aber durchaus auch objektivierbares - Gefühl der Frische, höheren Lebensmut und größerer Leistungsfähigkeit.
Verschiedene Anhaltspunkte machten deutlich, daß es sich nicht um einen Cortisoneffekt handelte.
Wenn ein bis zwei Tage lang nicht oder mit Placebos behandelt wurde, trat bei allen Patienten eine objektive Verschlechterung in Richtung der bisherigen Beschwerden auf; auch subjektiv waren alle Patienten eindrucksvoll in der Lage, anhand der Wirkung Spritzen mit Substanz von Placebos zu unterscheiden. Die richtige Dosierung des erfindungsgemäßen Mittels ist kritisch. Uberdosierungen machten sich in Form von erhöhtem Blutdruck, Hitzegefühl, Kurzatmigkeit und bei kreislauflabilen Patienten in deren typischen Beschwerden bemerkbar. Die normale Tagesdosis des Tentrapeptides zur MS-Therapie wurde auf etwa […] festgesetzt, in Einzelfällen - solange es ohne die obengenannten Uberdosierungsphänomene vertragen wird - höher bzw. im Sinne einer Erhaltungsdosis oder bei kreislauflabilen Patienten auch niedriger.

Series [3] can be described thus: Duration of effect in the body. It is filed as in vivo. The following applies: without depot substance. The method, then: as §1, §2
Series [4] in a line: Therapeutic use of melanotropin peptides, overall results (no method given). It is filed as in vivo. The following applies: general statement, treatment of diencephalon/hypophysis dysfunction, Multiple Sklerose.
A short description of series [5]: Comparative trials with peptides of six, four or two amino acids of the chain Met-Glu-His-Phe-Arg-Trp-Gly. It is filed as in vivo. The method, then: Die Wirkung von etwa 0,3 mg <-MSH entsprach etwa der Wirkung von 0,1 mg dieses Tetrapeptides.
The next series has as its system menschlichen Auges. As to the kind of experiment: Eye drops, effect on vision. The class given is in vivo, Patienten. The text has this: Diese Fähigkeit zeigte insbesondere das Tetrapeptid His-Phe-Arg-Trp.
Es wurden täglich ca. 2pg pro Auge des Tetrapeptides in physiologischer Kochsalzlösung in der Form von Augentropfen verabreicht. Dabei wurden die vorstehend erwähnten Erfolge erzielt.

The subject of series [6] is Patienten. As to the kind of experiment: Subcutaneous injection of the chemically pure substances in a series of patients. It is filed as in vivo. The following applies: subkutan. The source says: Es wurden ferner die chemisch reinen Substanzen α -MSH und ß -MSH subkutan bei einer Reihe von Patienten gespritzt.
[7] abbreviates: Augentropfen in physiologischer Kochsalzlösung, daily.

Regarding `N=C(N)NCCC[C@H](NC(=O)[C@H](Cc1ccccc1)NC(=O)[C@@H](N)Cc1cnc[nH]1)C(=O)N[C@@H](Cc1c[nH]c2ccccc12)C(=O)O` [Tetrapeptid His-Phe-Arg-Trp, His-Phe-Arg-Trp], the Lagerfähigkeit entry in series [1] (als Reinsubstanz tiefgekühlt) is “lagerfähig”. The “Loss of Wirksamkeit” value in series [1] (in destilliertem Wasser gelöst, bei Kühlschranktemperatur aufbewahrt) is given as “etwa die Hälfte”. For the same compound, the Halbwertzeit result in series [1] (pure tetrapeptide, storage) is reported as “ca. 1 Woche”. Further, in the series with Patienten [2] (in vivo), the “Tolerability together with Cortison” value is listed as “gut nebeneinander vertragen”. Further, in the series with Patienten [2] (subkutan, 2 - 15 Monate), the “Krankheitsbild (course)” value is given as “keine Verschlechterungen des Krankheitsbildes auf, sondern einige nachweisbare Verbesserungen”; the “Reports of individual patients” value was “Normalisierung des (bisher zu niedrigen) Blutdrucks, bessere Durchblutung und Beweglichkeit der Extremitäten, Wiederherstellung des Tag-Nacht-Rhythmus (keine Schlafstörungen mehr), bessere Sehfähigkeit, Normalisierung des Zyklus, Minderung von Gleichgewichtsstörungen”; the “Share of patients with Gefühl der Frische, höheren Lebensmut und größerer Leistungsfähigkeit” value is “Zwei Drittel”; the Spastik result is “starkes Nachlasen der Spastik”. For the same compound, in the series with Patienten [2] (withdrawal of Cortison under the tetrapeptide), the “Absetzen von Cortison” value was “wesentlich erleichtert und ohne Rückschläge oder Komplikationen beschleunigt”. Further, in series [3], the “Loss of effect im Körper” value is given as “innerhalb kurzer Zeit”. Besides, the Ergebnisse result in series [4] was “besten Ergebnisse”. For the same compound, the “Equally effective amount (Wirkung entsprach)” value in series [5] (amounts of the two substances with about the same effect) was ~0,1 mg. Further, the “Positivwirkung und Negativwirkung” value in series [5] (comparison among peptides of the seven-residue chain) is recorded as “stärksten Positivwirkung und der schwächsten Negativwirkung”. In addition, in the series with menschlichen Auges (setting [7]), the “Fähigkeit des Patienten in bezug auf die Zusammensetzung von bewegten Bildern” value is reported as “wesentlich verbessert” and the “Wahrnehmung von Lichtreizen” value is “stabilisiert”. The “Sehfähigkeit des menschlichen Auges” value with menschlichen Auges (in vivo) was “Verbesserung der Sehfähigkeit”. Further, the “Wirkung (comparison between the substances)” value in the series with Patienten [6] (patients) was “im wesentlichen die gleiche Wirkung wie α -MSH und β-MSH”.
For the compound β -Melanotropin [ß -MSH], in the series on Patienten [6] (time to onset, at first application possibly only after one to two days), the “kurzzeitiger Besserungseffekt (Kräftigung, Frischegefühl)” value is given as “innerhalb der ersten Stunde”.
